Results from patent publication US12297192B2, “Crystal form of pyrimidine sulfonamide compound and preparation method therefor” (WUXI BIOCITY BIOPHARMACEUTICS CO., LTD., priority 2019, dated 2025).

Assays:
[1] = Stability test of Crystal Form A in different solvents (XRPD after 3 days stirring in saturated solutions); format: physicochemical; settings: for Crystalline (form by XRPD, 3 days later) / Status (3 days later): 0.3 mL
Method: The crude compound of formula (I) was dissolved in dichloromethane at 38-40° C., filtered while hot, concentrated under reduced pressure to dryness to obtain mixed crystals of formula (I). Saturated solutions of mixed crystals of the compound of formula (I) in THF and ACN were prepared at 50° C., respectively.
The suspension was centrifuged. The precipitate was taken and dried overnight in a vacuum oven at 30° C. The dried product was subjected to XRPD to determine the status of the crystal forms.

[2] = Pharmacokinetic evaluation in rats; format: in vivo, SD rats
Method: The animals used in this study were SD male rats. The LC/MS/MS method was applied to quantify the plasma drug concentrations in rats at different time points after administration of the test compound intravenously or orally by gavage in order to evaluate the pharmacokinetic characteristics of the test compound in rats.
Sprague Dawley (SD) rats (male, 200-300 g, 7-10 weeks old, Beijing Vital River or Shanghai SLAC).
A clear solution of the test compound was administered to SD rats by tail vein injection (overnight fasting) or oral gavage (overnight fasting). At 0 hour (before administration through tail vein injection) and 0.0833, 0.25, 0.5, 1, 2, 4, 6, 8 and 24 hours after administration through tail vein injection, 200 μL of blood was collected by jugular venipuncture into anticoagulation tubes supplemented with EDTA-K2 (Jiangsu Kangjian Medical Supplies Co., Ltd.). The mixture in the anticoagulation tube was vortexed thoroughly at 4° C. and then centrifuged at 13,000 rpm for 10 minutes to obtain the plasma. At 0 hours (before administration by oral gavage) and 0.5, 1, 2, 4, 6, 8 and 24 hours after administration by oral gavage, 200 μL of blood was collected by jugular venipuncture into anticoagulation tubes supplemented with EDTA-K2 (Jiangsu Kangjian Medical Supplies Co., Ltd.). The mixture in the anticoagulation tube was vortexed thoroughly and the plasma was then centrifuged at 13,000 rpm for 10 minutes to obtain the plasma. Blood concentrations were determined by LC/MS/MS and the relevant pharmacokinetic parameters were calculated using WinNonlin™ Version 6.3 (Pharsight, Mountain View, CA) pharmacokinetics software with a non-compartmental model linear-log trapezoidal method.

[3] = biological target: T1, CYP1A2 (Homo sapiens, UniProt P05177); assay: Human liver microsomal cytochrome P450 isozyme inhibition; format: in vitro ADME; settings: human liver microsomes
T1 construct: Mixed human liver microsomes (HLM) were purchased from Corning Inc; tissue Corning Inc; host or cells: pooled human liver microsomes
T1 sequence (P05177 1-516): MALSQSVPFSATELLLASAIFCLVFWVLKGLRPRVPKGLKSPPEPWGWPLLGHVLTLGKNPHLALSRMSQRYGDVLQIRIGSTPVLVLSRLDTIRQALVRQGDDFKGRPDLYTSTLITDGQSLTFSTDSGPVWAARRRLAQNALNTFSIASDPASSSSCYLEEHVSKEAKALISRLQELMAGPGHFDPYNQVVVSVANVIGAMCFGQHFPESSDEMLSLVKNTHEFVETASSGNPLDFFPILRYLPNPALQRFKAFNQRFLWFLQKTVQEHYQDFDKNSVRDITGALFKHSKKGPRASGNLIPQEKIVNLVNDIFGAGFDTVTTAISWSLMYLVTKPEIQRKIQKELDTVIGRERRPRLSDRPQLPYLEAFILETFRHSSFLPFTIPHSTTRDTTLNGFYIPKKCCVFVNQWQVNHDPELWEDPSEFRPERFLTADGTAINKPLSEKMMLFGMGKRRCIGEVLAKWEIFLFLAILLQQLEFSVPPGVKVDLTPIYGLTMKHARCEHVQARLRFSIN
Method: (§1) The aim of the project was to evaluate the inhibitory activity of the test article against human liver microsomal cytochrome P450 isozymes (CYP1A2, CYP2C9, CYP2C19, CYP2D6 and CYP3A4) using a 5-in-1 probe substrate for CYP isozymes.
(§2) Mixed human liver microsomes (HLM) were purchased from Corning Inc. (Steuben, New York, USA) and stored at less than −80° C. prior to use. A diluted series of concentrations of the stock solution of the test article was added to an incubation system containing human liver microsomes, probe substrate and cofactors of the circulatory system. The control without the test article but with solvent was used as the enzyme activity control (100%). The concentration of metabolites generated by the probe substrate in the samples was determined by liquid chromatography-tandem mass spectrometry (LC-MS/MS). A non-linear regression analysis of the mean percentage activity of the test article against concentration was performed using SigmaPlot (V.11). The IC50 values were calculated using a three- or four-parameter inverse hyperbolic logarithmic function.

[4] = biological target: T2, CYP2C19 (Homo sapiens, UniProt P33261); assay: as above; format: in vitro ADME; settings: human liver microsomes
T2 construct: Mixed human liver microsomes (HLM) were purchased from Corning Inc; tissue Corning Inc; host or cells: pooled human liver microsomes
T2 sequence (P33261 whole entry): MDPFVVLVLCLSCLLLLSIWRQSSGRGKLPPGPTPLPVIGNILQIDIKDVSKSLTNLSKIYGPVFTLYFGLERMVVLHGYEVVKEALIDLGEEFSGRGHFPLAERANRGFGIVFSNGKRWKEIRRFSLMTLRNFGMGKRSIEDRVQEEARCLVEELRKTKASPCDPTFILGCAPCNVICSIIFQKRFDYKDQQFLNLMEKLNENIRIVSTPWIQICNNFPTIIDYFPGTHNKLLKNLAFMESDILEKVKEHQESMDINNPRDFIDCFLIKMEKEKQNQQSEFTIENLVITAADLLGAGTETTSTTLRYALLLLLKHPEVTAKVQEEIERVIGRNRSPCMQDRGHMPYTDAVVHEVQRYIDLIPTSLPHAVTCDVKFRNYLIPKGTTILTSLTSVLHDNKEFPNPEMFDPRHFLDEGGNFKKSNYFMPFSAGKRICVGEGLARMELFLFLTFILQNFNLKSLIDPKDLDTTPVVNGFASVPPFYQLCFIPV
Method: as §1, §2

[5] = biological target: T3, CYP2C9 (Homo sapiens, UniProt P11712); assay: as above; format: in vitro ADME; settings: human liver microsomes
T3 construct: Mixed human liver microsomes (HLM) were purchased from Corning Inc; tissue Corning Inc; host or cells: pooled human liver microsomes
T3 sequence (P11712 whole entry): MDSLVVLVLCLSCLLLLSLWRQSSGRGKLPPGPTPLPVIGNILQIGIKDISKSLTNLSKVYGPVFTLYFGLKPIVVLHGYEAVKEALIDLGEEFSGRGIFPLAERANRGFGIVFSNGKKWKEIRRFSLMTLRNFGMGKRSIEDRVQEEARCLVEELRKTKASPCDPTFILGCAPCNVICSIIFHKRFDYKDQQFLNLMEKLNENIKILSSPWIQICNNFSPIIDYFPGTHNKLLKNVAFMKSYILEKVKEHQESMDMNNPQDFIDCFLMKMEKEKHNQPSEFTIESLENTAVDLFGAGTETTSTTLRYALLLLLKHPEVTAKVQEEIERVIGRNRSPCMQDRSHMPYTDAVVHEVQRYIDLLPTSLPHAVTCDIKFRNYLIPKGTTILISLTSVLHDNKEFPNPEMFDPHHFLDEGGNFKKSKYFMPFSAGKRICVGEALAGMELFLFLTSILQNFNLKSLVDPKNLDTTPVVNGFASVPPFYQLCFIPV
Method: as §1, §2

For `COCCNS(=O)(=O)Nc1ncnc(OCCOc2ncc(Br)cn2)c1-c1ccc2c(c1)OCO2`, the “Crystalline (form by XRPD, 3 days later)” value ([1]; Acetonitrile, 25 °C) was “Crystal Form A”, the “Status (3 days later)” value ([1]; Acetonitrile, 25 °C) was “Precipitation” and the “Crystalline (form by XRPD, 3 days later)” value ([1]; Acetonitrile, 50 °C) was “Crystal Form A”. For the same compound, the “Status (3 days later)” value ([1]; Acetonitrile, 50 °C) was “Precipitation”, the “Crystalline (form by XRPD, 3 days later)” value ([1]; Tetrahydrofuran, 25 °C) was “Crystal Form A” and the “Status (3 days later)” value ([1]; Tetrahydrofuran, 25 °C) was “Precipitation”. For the same compound, the “Crystalline (form by XRPD, 3 days later)” value ([1]; Tetrahydrofuran, 50 °C) was “Crystal Form A”, the “Status (3 days later)” value ([1]; Tetrahydrofuran, 50 °C) was “Precipitation” and the “Stability in solvents (conclusion in words)” value ([1]; acetonitrile and tetrahydrofuran at both 25° C. and 50° C.) was “Experimental conclusion: Crystal Form A of the compound of formula (I) had good stability in acetonitrile and tetrahydrofuran at both 25 °C and 50 °C”.
With `COCCNS(=O)(=O)Nc1ncnc(OCCOc2ncc(Br)cn2)c1-c1ccc2c(c1)OCO2` [Compound of formula (I)] the “Area under the drug concentration-time curve” value ([2]; intravenous injection 2 mg/kg) was 16.09 µM·h, the Plasma clearance ([2]; intravenous injection 2 mg/kg, 2 mg/kg) was 3.71 mL/min/kg and the “Area under the drug concentration-time curve” value ([2]; oral 10 mg/kg) was 60.22 µM·h. For the same compound, the Peak concentration ([2]; oral 10 mg/kg) was 31.99 µM, the Peak time ([2]; oral 10 mg/kg) was 0.25 h and the Bioavailability ([2]; oral 10 mg/kg, 10 mg/kg) was 74.9%.
With `CCCNS(=O)(=O)Nc1ncnc(OCCOc2ncc(Br)cn2)c1-c1ccc(Br)cc1` [Macitentan, reference compound] the IC50 [3] was 37.4 µM, the IC50 [4] was 31.7 µM and the “Inhibition on the isozyme CYP2C9 (in words)” value [5] was “moderate inhibition”.
